The values that follow come from patent US9505749B2, “Quinazolinone compounds and derivatives thereof” (AMGEN INC., priority 2012, dated 2016).

Read-outs that look alike come from different tables or passages of the source. A value given as a limit tells only on which side of the number the result lay.

Test [1] concerns the target 6×HIS-tankyrase1 (1091-1325) (Homo sapiens (Human), UniProt O95271). The test is described as follows: Tankyrase 1 biochemical assay (AlphaLisa, PARsylation). Particulars: read-out: TNKS1 IC50.
Test [2] deals with PARP2 (Homo sapiens (Human), UniProt Q9UGN5). In words: PARP2 biochemical assay (BPS kit).
For test [3], the system named is total β-catenin in SW480 colorectal cells. The test is described as follows: Total β-catenin MSD 96-well plate assay for SW480 cells. The settings on record: Homo sapiens, SW480, read-out: SW480-Total beta-catenin (TBC) IC50 IP.
In test [4] the target is 6×HIS-tankyrase 2 (946-1162) (Homo sapiens (Human), UniProt Q9H2K2). In words: Tankyrase 2 biochemical assay (AlphaLisa, PARsylation). Particulars: 250 nM NAD; read-out: TNKS2 IC50.
The subject of test [5] is Axin2 accumulation in SW480 cells. In words: Axin2 384 immunofluorescence assay. It counts as cell-based. Particulars: Homo sapiens, read-out: Axin2 384 IF EC50.
Test [6] has as its target PARP1 (Homo sapiens (Human), UniProt P09874). The test is described as follows: PARP1 biochemical assay (Trevigen kit). An excerpt:
PARP1 biochemical assay was purchased as a kit from Trevigen (cat.#4676-096-K) and used per manufacturers recommendations.

PARP2, sequence (Q9UGN5 whole entry): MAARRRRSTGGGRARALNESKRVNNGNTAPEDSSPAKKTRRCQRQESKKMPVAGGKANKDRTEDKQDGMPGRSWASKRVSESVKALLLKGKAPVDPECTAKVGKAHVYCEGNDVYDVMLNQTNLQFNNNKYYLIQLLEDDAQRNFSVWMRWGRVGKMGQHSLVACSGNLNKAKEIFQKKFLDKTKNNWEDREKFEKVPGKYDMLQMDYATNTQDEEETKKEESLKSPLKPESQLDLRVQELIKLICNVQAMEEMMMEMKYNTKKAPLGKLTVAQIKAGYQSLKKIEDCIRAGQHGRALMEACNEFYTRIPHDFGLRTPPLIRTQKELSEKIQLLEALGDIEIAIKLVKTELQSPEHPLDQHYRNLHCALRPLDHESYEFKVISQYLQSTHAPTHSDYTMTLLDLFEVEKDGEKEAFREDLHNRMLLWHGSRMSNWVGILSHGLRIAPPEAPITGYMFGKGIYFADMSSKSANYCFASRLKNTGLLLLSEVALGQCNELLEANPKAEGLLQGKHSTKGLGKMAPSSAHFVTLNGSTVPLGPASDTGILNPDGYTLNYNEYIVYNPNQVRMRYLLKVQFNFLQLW
6×HIS-tankyrase 2 (946-1162), sequence (Q9H2K2 946-1162): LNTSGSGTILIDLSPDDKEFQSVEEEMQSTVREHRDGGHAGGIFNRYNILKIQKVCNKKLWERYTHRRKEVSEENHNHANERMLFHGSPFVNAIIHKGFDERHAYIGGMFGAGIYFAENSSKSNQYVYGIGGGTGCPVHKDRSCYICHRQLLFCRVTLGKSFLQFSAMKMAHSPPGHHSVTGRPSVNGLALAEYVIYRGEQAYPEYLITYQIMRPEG
6×HIS-tankyrase1 (1091-1325), sequence (O95271 1091-1325): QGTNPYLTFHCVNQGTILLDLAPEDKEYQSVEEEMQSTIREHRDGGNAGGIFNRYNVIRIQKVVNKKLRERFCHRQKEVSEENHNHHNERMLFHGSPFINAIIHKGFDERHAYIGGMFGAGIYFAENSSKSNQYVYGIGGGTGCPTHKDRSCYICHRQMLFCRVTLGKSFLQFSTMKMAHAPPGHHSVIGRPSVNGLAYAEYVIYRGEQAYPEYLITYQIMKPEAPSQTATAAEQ
PARP1, sequence (P09874 whole entry): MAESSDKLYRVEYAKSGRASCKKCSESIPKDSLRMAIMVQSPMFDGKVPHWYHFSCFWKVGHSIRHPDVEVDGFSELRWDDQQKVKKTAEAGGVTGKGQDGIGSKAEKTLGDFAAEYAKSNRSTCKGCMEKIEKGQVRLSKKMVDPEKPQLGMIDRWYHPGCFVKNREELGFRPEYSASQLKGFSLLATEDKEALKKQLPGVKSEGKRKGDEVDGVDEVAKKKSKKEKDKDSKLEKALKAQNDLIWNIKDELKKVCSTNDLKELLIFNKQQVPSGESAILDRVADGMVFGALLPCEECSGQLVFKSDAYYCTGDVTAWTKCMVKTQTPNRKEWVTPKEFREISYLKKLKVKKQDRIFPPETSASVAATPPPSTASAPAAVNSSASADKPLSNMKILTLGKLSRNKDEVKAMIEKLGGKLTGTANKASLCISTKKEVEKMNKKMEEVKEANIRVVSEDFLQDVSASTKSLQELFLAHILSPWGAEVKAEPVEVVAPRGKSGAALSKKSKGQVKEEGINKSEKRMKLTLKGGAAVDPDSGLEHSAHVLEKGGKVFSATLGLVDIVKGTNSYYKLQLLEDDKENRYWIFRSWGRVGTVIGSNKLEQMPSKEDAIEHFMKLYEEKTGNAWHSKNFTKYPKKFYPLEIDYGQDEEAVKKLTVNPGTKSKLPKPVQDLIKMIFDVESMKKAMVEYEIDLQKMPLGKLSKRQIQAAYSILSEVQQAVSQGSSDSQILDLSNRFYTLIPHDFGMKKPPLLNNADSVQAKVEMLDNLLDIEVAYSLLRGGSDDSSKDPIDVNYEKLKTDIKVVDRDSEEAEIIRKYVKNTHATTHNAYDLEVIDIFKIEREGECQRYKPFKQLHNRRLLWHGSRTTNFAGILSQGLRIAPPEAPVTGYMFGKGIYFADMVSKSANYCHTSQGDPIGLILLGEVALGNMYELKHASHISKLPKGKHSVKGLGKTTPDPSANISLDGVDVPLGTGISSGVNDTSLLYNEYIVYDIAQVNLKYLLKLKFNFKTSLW

Take `N#Cc1cccc(-c2nnc([C@H]3CC[C@H](NC(=O)CCc4nc5ccccc5c(=O)[nH]4)CC3)o2)c1` [Example 137, N-((1r,4r)-4-(5-(3-cyanophenyl)-1,3,4-oxadiazol-2-yl)cyclohexyl)-3-(4-oxo-3,4-dihydroquinazolin-2-yl)propanamide]: the IC50 in test [1] (400 nM NAD, 60 minutes at RT) turned out to be 217 nM; in test [2], 4680 nM; in test [3], 741 nM; in test [4], 99.8 nM. Besides, in test [5] (SW480 cells, 24 hours), the EC50 was determined as 1820 nM.

For the compound `O=c1[nH]c(CCNC(=O)[C@H]2CC[C@H](c3nnc(-c4ccccc4)o3)CC2)nc2ccccc12` [Example 1, trans-N-(2-(4-oxo-3,4-dihydro-2-quinazolinyl)ethyl)-4-(5-phenyl-1,3,4-oxadiazol-2-yl)cyclohexanecarboxamide], the IC50 turned out to be 66.6 nM in test [1] (400 nM NAD, 60 minutes at RT); 3220 nM in test [2]; 142 nM in test [3]; 22.5 nM in test [4]. The EC50 in test [5] (SW480 cells, 24 hours) came to 1390 nM.

For `Cc1cc(=O)[nH]c(SCCC(=O)N[C@H]2CC[C@H](c3nnc(-c4ccccc4)o3)CC2)n1` [Example 37, 3-((4-methyl-6-oxo-1,6-dihydropyrimidin-2-yl)thio)-N-((1r,4r)-4-(5-phenyl-1,3,4-oxadiazol-2-yl)cyclohexyl)propanamide], the IC50 in test [1] (400 nM NAD, 60 minutes at RT) was 3.7 nM; in test [2], more than 170000 nM; in test [3], 738 nM; in test [6] it was more than 85000 nM; in test [4] it was 3.48 nM.

For `O=C(CCSc1nc2ccccc2c(=O)[nH]1)N[C@H]1CC[C@H](c2nnc(-c3cccc(Cl)c3)o2)CC1` [Example 118, N-((1r,4r)-4-(5-(3-chlorophenyl)-1,3,4-oxadiazol-2-yl)cyclohexyl)-3-((4-oxo-3,4-dihydroquinazolin-2-yl)thio)propanamide], the IC50 in test [1] (400 nM NAD, 60 minutes at RT) came out at 0.107 nM; in test [2], 3280 nM; in test [3], 1.2 nM; in test [4], 4.98 nM. Further, the EC50 in test [5] (SW480 cells, 24 hours) amounted to 3.34 nM.

In the case of `O=C(CCCc1nc2ccccc2c(=O)[nH]1)N1CCC(N2C(=O)C(F)(F)c3ccccc32)CC1` [Example 60, 2-(4-(4-(3,3-difluoro-2-oxo-2,3-dihydro-1H-indol-1-yl)-1-piperidinyl)-4-oxobutyl)-4(3H)-quinazolinone], the IC50 worked out at 46 nM in test [1], 4530 nM in test [6] and 28.9 nM in test [4]. For the same compound, the EC50 in test [5] (SW480, 24 h) stood at 2410 nM.

Consider `O=C(CCSc1nc2ccccc2c(=O)[nH]1)N1CCN(c2n[nH]c3ccccc23)CC1` [Example 94, 2-((3-(4-(1H-indazol-3-yl)-1-piperazinyl)-3-oxopropyl)sulfanyl)-4(3H)-quinazolinone], for which the IC50 is 12.1 nM in test [1] (400 nM NAD, 60 minutes at RT); 89.5 nM in test [2]; 2220 nM in test [3]; 1230 nM in test [6]; 6.3 nM in test [4].

Consider `O=C(CCCc1nc2ccccc2c(=O)[nH]1)N1CC=C(n2c(=O)[nH]c3ccccc32)CC1` [Example 46, 2-(4-oxo-4-(4-(2-oxo-2,3-dihydro-1H-benzimidazol-1-yl)-3,6-dihydro-1(2H)-pyridinyl)butyl)-4(3H)-quinazolinone trifluoroacetic acid], for which the IC50 in test [1] (400 nM NAD, 60 minutes at RT) was 17.7 nM; in test [3], 1360 nM; in test [6], 2050 nM; in test [4], 4.01 nM. Further, the EC50 in test [5] (SW480 cells, 24 hours) worked out at 4780 nM.

Turning to `O=C(CSc1nc2ccccc2c(=O)[nH]1)N[C@H]1CC[C@H](n2c(=O)[nH]c3cc(Cl)ccc32)CC1` [Example 87, N-((1r,4r)-4-(5-chloro-2-oxo-2,3-dihydro-1H-benzo[d]imidazol-1-yl)cyclohexyl)-2-((4-oxo-3,4-dihydroquinazolin-2-yl)thio)acetamide], the IC50 in test [1] (400 nM NAD, 60 minutes at RT) was 0.0597 nM; in test [3], 7.27 nM; in test [6] it was more than 85000 nM; in test [4], 2.52 nM. The EC50 in test [5] (SW480 cells, 24 hours) was 25.8 nM.

On to `COc1cccc(-c2nnc([C@H]3CC[C@H](NC(=O)CCSc4nc5ccccc5c(=O)[nH]4)CC3)o2)c1` [Example 120, N-((1r,4r)-4-(5-(3-methoxyphenyl)-1,3,4-oxadiazol-2-yl)cyclohexyl)-3-((4-oxo-3,4-dihydroquinazolin-2-yl)thio)propanamide], for which the IC50 came to 0.0647 nM in test [1] (400 nM NAD, 60 minutes at RT); 3730 nM in test [2]; 2.03 nM in test [3]; 5.35 nM in test [4]. The EC50 in test [5] (SW480 cells, 24 hours) stood at 2.33 nM.

`O=C(CCCc1nc2ccccc2c(=O)[nH]1)N[C@H]1CC[C@H](OCc2ccccc2)C1` (stereo in doubt) [Example 62, N-((1R,3R)-3-(benzyloxy)cyclopentyl)-4-(4-oxo-3,4-dihydroquinazolin-2-yl)butanamide+N-((1S,3S)-3-(benzyloxy)cyclopentyl)-4-(4-oxo-3,4-dihydroquinazolin-2-yl)butanamide]: the IC50 in test [1] (400 nM NAD, 60 minutes at RT) is 587 nM; in test [2], 2840 nM; in test [3], more than 10000 nM; in test [6] it was 7680 nM; in test [4] it was 138 nM.

For `O=C(CCCc1nc2ccccc2c(=O)[nH]1)N[C@H]1CC[C@H](c2nnc(-c3ccc(F)c(Cl)c3)o2)CC1` [Example 35, N-(trans-4-(5-(3-chloro-4-fluorophenyl)-1,3,4-oxadiazol-2-yl)cyclohexyl)-4-(4-oxo-3,4-dihydro-2-quinazolinyl)butanamide 2,2,2-trifluoroacetate], the IC50 in test [1] (400 nM NAD, 60 minutes at RT) was determined as 0.277 nM; in test [2], 923 nM; in test [3] it was 19.7 nM; in test [4], 0.196 nM. The EC50 in test [5] (SW480 cells, 24 hours) was determined as 10.8 nM.

Regarding `O=C(CCSc1cc(=O)n2ccccc2n1)N[C@H]1CC[C@H](c2nnc(-c3ccccc3)o2)CC1` [Example 144, 3-((4-oxo-4H-pyrido[1,2-a]pyrimidin-2-yl)sulfanyl)-N-(trans-4-(5-phenyl-1,3,4-oxadiazol-2-yl)cyclohexyl)propanamide], the IC50 in test [1] (400 nM NAD, 60 minutes at RT) is 4.78 nM; in test [2] it was more than 170000 nM; in test [3], 349 nM; in test [6], more than 85000 nM; in test [4], 5.46 nM.

As to `Cn1c(=O)n(C2CCN(C(=O)CCCc3nc4ccccc4c(=O)[nH]3)CC2)c2ccc(Cl)cc21` [Example 45, 2-(4-(4-(5-chloro-3-methyl-2-oxo-2,3-dihydro-1H-benzimidazol-1-yl)-1-piperidinyl)-4-oxobutyl)-4(3H)-quinazolinone], the IC50 in test [1] (400 nM NAD, 60 minutes at RT) was determined as 73.7 nM; in test [2], 1020 nM; in test [3], 2340 nM; in test [4], 52.5 nM. Further, the EC50 in test [5] (SW480 cells, 24 hours) was 4630 nM.

On to `O=C(CCc1nc2ccccc2c(=O)[nH]1)N[C@H]1CC[C@H](n2c(=O)[nH]c3ccc(Cl)cc32)CC1` [Example 86, N-((1r,4r)-4-(6-chloro-2-oxo-2,3-dihydro-1H-benzo[d]imidazol-1-yl)cyclohexyl)-3-(4-oxo-3,4-dihydroquinazolin-2-yl)propanamide], for which the IC50 in test [1] (400 nM NAD, 60 minutes at RT) came to 1.01 nM; in test [2], 279 nM; in test [3], 32.6 nM; in test [4] it was 0.347 nM. In addition, in test [5] (SW480 cells, 24 hours), the EC50 worked out at 207 nM.

With `N#Cc1ccc2c(c1)[nH]c(=O)n2[C@H]1CC[C@H](NC(=O)CSc2nc3ccccc3c(=O)[nH]2)CC1` [Example 103, N-((1r,4r)-4-(5-cyano-2-oxo-2,3-dihydro-1H-benzo[d]imidazol-1-yl)cyclohexyl)-2-((4-oxo-3,4-dihydroquinazolin-2-yl)thio)acetamide], the IC50 in test [1] (400 nM NAD, 60 minutes at RT) worked out at 0.129 nM; in test [2], 2280 nM; in test [3] it was 138 nM; in test [4], 9.92 nM. In addition, the EC50 in test [5] (SW480 cells, 24 hours) is 198 nM.

In the case of `O=C(CCSc1nc2ccc(F)cc2c(=O)[nH]1)N[C@H]1CC[C@H](c2nnc(-c3ccccc3)o2)CC1` [Example 145, 3-((6-fluoro-4-oxo-3,4-dihydro-2-quinazolinyl)sulfanyl)-N-(trans-4-(5-phenyl-1,3,4-oxadiazol-2-yl)cyclohexyl)propanamide], the IC50 in test [1] (400 nM NAD, 60 minutes at RT) came out at 0.148 nM; in test [2] it was 1120 nM; in test [3] it was 7.66 nM; in test [6], 3540 nM; in test [4], 5.02 nM.

Consider `O=C(CCCc1nc2ccccc2c(=O)[nH]1)N[C@H]1CC[C@H](c2ncc(-c3ccccc3)o2)CC1` [Example 95, 4-(4-oxo-3,4-dihydro-2-quinazolinyl)-N-(trans-4-(5-phenyl-1,3-oxazol-2-yl)cyclohexyl)butanamide], for which the IC50 in test [1] (400 nM NAD, 60 minutes at RT) stood at 0.0979 nM; in test [2], 1070 nM; in test [3], 4.83 nM; in test [6] it was 1930 nM; in test [4], 0.16 nM.

Take `O=C(CCSc1nc2ccccc2c(=O)[nH]1)N1CCC(n2c(=O)[nH]c3cc(Cl)ccc32)CC1` [Example 82, 2-((3-(4-(5-chloro-2-oxo-2,3-dihydro-1H-benzo[d]imidazol-1-yl)piperidin-1-yl)-3-oxopropyl)thio)quinazolin-4(3H)-one]: the IC50 in test [1] (400 nM NAD, 60 minutes at RT) is 128 nM; in test [2] it was 99.4 nM; in test [3], 3310 nM; in test [6], 1470 nM; in test [4], 73.7 nM.

On to `O=C(CCc1nc2ccccc2c(=O)[nH]1)N[C@H]1CC[C@H](n2c(=O)[nH]c3ccccc32)CC1` [Example 84, N-(trans-4-(2-oxo-2,3-dihydro-1H-benzo[d]imidazol-1-yl)cyclohexyl)-3-(4-oxo-3,4-dihydroquinazolin-2-yl)propanamide], for which the IC50 worked out at 1.44 nM in test [1] (400 nM NAD, 60 minutes at RT); 1030 nM in test [2]; 433 nM in test [3]; 0.671 nM in test [4]. Also, the EC50 in test [5] (SW480 cells, 24 hours) is 1780 nM.
